Experimental data reported in ChEMBL document CHEMBL1201862, “PubChem BioAssay data set” (2004).
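96-well plates; 48 h exposure; 5 concentrations. Endpoints by linear interpolation between flanking doses. Not reached: highest tested concentration assigned. GI50: concentration for 50% inhibition of growth.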 Active and inactive are the calls of the source. Rule as the data show it: active = GI50 up to about 1.1 µM and inactive = higher.

Assays:
Assay in all cases: NCI anticancer screen, dose series, 48 h
[1] = system: SF-268
[2] = system: RPMI-8226
[3] = system: MDA-MB-435
[4] = system: MDA-MB-231
[5] = system: PC-3
[6] = system: SR
[7] = system: NCI-H226
[8] = system: SK-OV-3
[9] = system: SNB-19
[10] = system: IGROV-1
[11] = system: T47D
[12] = system: HCT-116
[13] = system: COLO 205
[14] = system: RXF 393
[15] = system: NCI-H23
[16] = system: CAKI-1
[17] = system: EKVX
[18] = system: Malme-3M
[19] = system: CCRF-CEM
[20] = system: HCC 2998

SMILES | GI50 [1] | GI50 [2] | GI50 [3] | GI50 [4] | GI50 [5] | GI50 [6] | GI50 [7] | GI50 [8] | GI50 [9] | GI50 [10] | GI50 [11] | GI50 [12] | GI50 [13] | GI50 [14] | GI50 [15] | GI50 [16] | GI50 [17] | GI50 [18] | GI50 [19] | GI50 [20]
CCOC(=O)c1cc(C2CCN(Cc3ccccc3)C2=O)c(C(=O)C(=[N+]=[N-])C(C)=O)[nH]1 (stereo not given) | > 100 µM (inactive) | > 100 µM (inactive) | > 100 µM (inactive) | > 100 µM (inactive) | > 100 µM (inactive) | > 100 µM (inactive) | > 100 µM (inactive) | > 100 µM (inactive) | > 100 µM (inactive) | > 100 µM (inactive) | > 100 µM (inactive) | > 100 µM (inactive) | > 100 µM (inactive) | > 100 µM (inactive) | > 100 µM (inactive) | > 100 µM (inactive) | > 100 µM (inactive) | > 100 µM (inactive) | > 100 µM (inactive) | > 100 µM (inactive)
COc1ccc(/C=C2\CCC/C(=C\c3ccc(O)c(CN4CCCCC4)c3)C2=O)cc1 | 3.31 µM (inactive) | 3.89 µM (inactive) | 3.1 µM (inactive) | 4.09 µM (inactive) | 4.74 µM (inactive) | 1.35 µM (inactive) | 6.67 µM (inactive) | 22.3 µM (inactive) | 23.4 µM (inactive) | 4.7 µM (inactive) | 19.3 µM (inactive) | 2.82 µM (inactive) | 8.09 µM (inactive) | 20.3 µM (inactive) | 4.93 µM (inactive) | 11.1 µM (inactive) | 10 µM (inactive) | 11.5 µM (inactive) | 4.02 µM (inactive) | 5.45 µM (inactive)
COc1cccc(C2c3cc4c(cc3OC(NNS(=O)(=O)c3ccc(C)cc3)C2C)OCO4)c1O (stereo not given) | 41.9 µM (inactive) | 6.31 µM (inactive) | 23.4 µM (inactive) | 20.4 µM (inactive) | 12.4 µM (inactive) | 6.79 µM (inactive) | 27.9 µM (inactive) | 38.8 µM (inactive) | 28.3 µM (inactive) | 26.9 µM (inactive) | 18.2 µM (inactive) | 15.3 µM (inactive) | 17.8 µM (inactive) | 21.3 µM (inactive) | 29.2 µM (inactive) | 24.2 µM (inactive) | 20.2 µM (inactive) | 23.8 µM (inactive) | 10 µM (inactive) | 31.1 µM (inactive)
COc1ccc2nc3c4c(nccc4c2c1)-c1ncccc1C3=O | 0.0826 µM (active) | 0.0652 µM (active) | 0.0427 µM (active) | 0.494 µM (active) | 0.0317 µM (active) | 0.00542 µM (active) | 0.0622 µM (active) | 0.0586 µM (active) | 0.0656 µM (active) | 0.0294 µM (active) | 0.703 µM (active) | 0.0124 µM (active) | 0.604 µM (active) | 0.119 µM (active) | 0.0887 µM (active) | 0.109 µM (active) | 0.132 µM (active) | 0.0791 µM (active) | 0.818 µM (active) | 0.209 µM (active)
c1ccc2c(c1)CC1c3[nH]c4ccccc4c3CCN21 (stereo not given) | > 10 µM (inactive) | > 10 µM (inactive) | > 10 µM (inactive) | > 10 µM (inactive) | > 10 µM (inactive) | > 10 µM (inactive) | > 10 µM (inactive) | > 10 µM (inactive) | > 10 µM (inactive) | > 10 µM (inactive) | > 10 µM (inactive) | > 10 µM (inactive) | > 10 µM (inactive) | > 10 µM (inactive) | > 10 µM (inactive) | > 10 µM (inactive) | > 10 µM (inactive) | > 10 µM (inactive) | > 10 µM (inactive) | > 10 µM (inactive)
CC(C)CCCCCCCCCCCCC(=O)NCC(=O)NC1C(C)OC(Nc2[nH]cnc3ncnc2-3)C(O)C1O (stereo not given) | 0.000635 µM (active) | 0.000568 µM (active) | 0.00571 µM (active) | < 0.01 µM (active) | 0.00433 µM (active) | 0.00153 µM (active) | 0.0024 µM (active) | < 0.01 µM (active) | 0.0021 µM (active) | 0.000782 µM (active) | 0.00235 µM (active) | 0.000244 µM (active) | 0.000622 µM (active) | < 0.01 µM (active) | 0.00536 µM (active) | < 0.01 µM (active) | 0.00575 µM (active) | 0.000332 µM (active) | 0.0048 µM (active) | 0.000331 µM (active)
O=C1NN=C2C=C(c3ccc(Cl)cc3)CC(c3cccc(Br)c3)C12 (stereo not given) | 68.5 µM (inactive) | 26.1 µM (inactive) | 77.1 µM (inactive) | 30.4 µM (inactive) | 53.7 µM (inactive) | 38.3 µM (inactive) | 73.6 µM (inactive) | > 100 µM (inactive) | 21.2 µM (inactive) | 51.3 µM (inactive) | 22.1 µM (inactive) | 64.9 µM (inactive) | > 100 µM (inactive) | 62.8 µM (inactive) | 87.3 µM (inactive) | 23.4 µM (inactive) | 47.5 µM (inactive) | > 100 µM (inactive) | 22 µM (inactive) | 38.7 µM (inactive)
O=P1(Cc2ccccc2)c2ccccc2-c2ccccc21 | 9.12 µM (inactive) | 0.65 µM (active) | 0.764 µM (active) | 20.7 µM (inactive) | 2.82 µM (inactive) | 3.89 µM (inactive) | 5.77 µM (inactive) | 15.7 µM (inactive) | 3.69 µM (inactive) | 2.33 µM (inactive) | 0.0658 µM (active) | 2.86 µM (inactive) | 2.63 µM (inactive) | 9.42 µM (inactive) | 3.86 µM (inactive) | 21.7 µM (inactive) | 20.4 µM (inactive) | 2.15 µM (inactive) | 6.04 µM (inactive) | 1.51 µM (inactive)
COc1ccc(/C=N/NS(=O)(=O)c2ccc(/C=C3\NC(=O)N(C)C3=O)cc2)cc1 | 37.8 µM (inactive) | > 100 µM (inactive) | > 100 µM (inactive) | 38.8 µM (inactive) | 80.2 µM (inactive) | > 100 µM (inactive) | > 100 µM (inactive) | > 100 µM (inactive) | 80.9 µM (inactive) | 43.6 µM (inactive) | > 100 µM (inactive) | > 100 µM (inactive) | > 100 µM (inactive) | 38.6 µM (inactive) | 92.9 µM (inactive) | > 100 µM (inactive) | 89.9 µM (inactive) | > 100 µM (inactive) | 78.3 µM (inactive) | > 100 µM (inactive)
